According to patent publication EP0545103A1, “Insecticidal, acaricidal and molluscicidal 1-(substituted) thioalkylpyrroles” (priority 1991, dated 1993):

Key:
[1] = system: Empoasca abrupta, adult, western potato leafhopper; experiment: Western potato leafhopper systemic uptake test; format: in vivo; parameters: key: 0: no effect; 10-25% kill; 26-35% kill; 36-45% kill; 46-55% kill; 56-65% kill; 66-75% kill; 76-85% kill; 86-99% kill; 9: 100% kill; conditions: 100 ppm
Outline: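 Leafhopper mortality, rated on a scale, scored 2 days after about 10 adults were confined with a leaf in a moist dish. The leaf came from a cut lima bean stem that had taken up the compound emulsion (100 ppm and 10-fold dilutions) over 3 days at 27 °C.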

[2] = system: Diabrotic undecimpunctata howardi, 3rd instar southern corn rootworm; experiment: Southern corn rootworm soil test; format: in vivo; parameters: key: 0: no effect; 10-25% kill; 26-35% kill; 36-45% kill; 46-55% kill; 56-65% kill; 66-75% kill; 76-85% kill; 86-99% kill; 9: 100% kill; conditions: mortality rating after 6 days
Outline: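 Soil test with ten 3rd instar larvae per jar, mortality read after 6 days and missing larvae counted as dead; scores on a rating scale. Doses were 1.25 and 0.25 mg a.i. per jar, corresponding to roughly 50 and 10 kg/ha, loaded on talc from acetone and mixed into moist soil with millet seed as food.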

[3] = system: Empoasca abrupta, adult, western potato leafhopper; experiment: Western potato leafhopper contact test, dipped limabean leaf; format: in vivo; parameters: key: 0: no effect; 10-25% kill; 26-35% kill; 36-45% kill; 46-55% kill; 56-65% kill; 66-75% kill; 76-85% kill; 86-99% kill; 9: 100% kill
Outline: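 Sieva limabean leaf dipped 3 s in compound solution (diluted in water from 10,000 ppm stock in 35% acetone), dried, and infested with about 10 adult leafhoppers on moist filter paper. Mortality counted after 2 days and scored on a rating scale.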

Rhizoctonia solani = experiment: In vitro fungicidal activity, mycelial growth inhibition on agar (Rhiz); format: cell-based; conditions: 48 h, two days
Description: (§1) Test compounds are dissolved in acetone, diluted with sterile, deionized water and mixed with a partially cooled, autoclaved, chemically defined agar medium. This mixture is poured into several 100mm x 15mm sterile plastic plates and allowed to solidify. The surface of each plate is inoculated with a single disc of mycelium and agar cut with an 8mm diameter cork borer from actively growing cultures of assay fungi on a chemically defined agar medium. The plates are incubated at room temperature. Growth inhibition is determined when the mycelial growth on unamended control media has reached the edge of the petri plates. The time interval varies depending on the growth rate of the fungus; two days for Pythium ultimum (pyth) and Rhizoctonia solani (Rhiz) , five days for Botrytis cinerea (Betry) and 7-10 days for Pseudocercosporella herpotrichoides (Pseudo). Each colony diameter is measured and compared with the untreated control and the percent inhibition is calculated as follows: [formula] Each test includes a solvent blank consisting of the formulation without a test compound in addition to the untreated control.
(§2) Assay fungi include the plant pathogens, Pythium ultimum (Pyth) and Rhizoctonia solani (Rhiz).
(§3) When more than one test is run the data are averaged.

[4] = system: Erysiphe graminis, tritici; experiment: In vivo fungicidal activity, Wheat Powdery Mildew (WPM); conditions: rate 400 ppm, rating, averaged
Description: (§4) Test compounds are dissolved in acetone and diluted with deionized water containing about 0.05% TWEEN 20®, a polyoxyethylene sorbitan monolaurate surfactant manufactured by Atlas Chemical Industries, to give a concentration of 400 ppm. Subsequent dilutions are made with an 0.05% aqueous solution of TWEEN 20®.
(§5) Host plants are sprayed with test solution, dried and inoculated with fungi. When disease symptom development is optimal, the plants are rated for disease control according to the rating scale shown below. Each test contains inoculated treated plants, inoculated untreated plants and a reference standard.
(§6) When more than one test is run, the data are averaged.

Cercospora beticola = experiment: In vivo fungicidal activity, Sugarbeet Cercospora (SBC); conditions: rating, averaged
Description: as §4, §5, §6

Plasmopara viticola = experiment: In vivo fungicidal activity, Grape Downy Mildew (GDM); conditions: rate 400 ppm, rating, averaged
Description: as §4, §5, §6

[5] = system: Puccinia recondita, tritici; experiment: In vivo fungicidal activity, Wheat Leaf Rust (WLR); conditions: rate 400 ppm, rating, averaged
Description: as §4, §5, §6

Venturia inaequalis = experiment: In vivo fungicidal activity, Apple Scab (AS); conditions: rate 400 ppm, host plants sprayed then inoculated, rating, averaged
Description: as §4, §5, §6

Pythium ultimum = experiment: In vitro fungicidal activity, mycelial growth inhibition on agar (Pyth); format: cell-based; conditions: Globisporangium ultimum, 48 h, two days
Description: as §1, §2, §3

[6] = cut stem in emulsion 3 days, mortality rating after 2 days
[7] = 10 ppm, mortality rating after 2 days
[8] = 100 ppm, mortality rating after 2 days
[9] = systemic uptake, rating scale 0-9
[10] = 10 ppm, contact, rating scale 0-9
[11] = 100 ppm, contact, rating scale 0-9

SMILES	LEAFHOPPER Systemic [1, 6]	SOUTHERN CORN ROOTWORM ([2]; 50 (ppm as headed))	LEAFHOPPER Systemic [1, 9]	LEAFHOPPER Contact [3, 10]	LEAFHOPPER Contact [3, 11]	further results
N#Cc1c(Cl)c(C(F)(F)F)n(CSC2=NCCN2)c1-c1ccc(Cl)cc1 [Example 4]	0	0	–	–	–	LEAFHOPPER Contact [3, 7]: 0; LEAFHOPPER Contact [3, 8]: 9 (100% kill)
CCOC(=S)SCn1c(-c2ccc(Cl)cc2)c(C#N)c(Br)c1C(F)(F)F [Example 29]	–	9 (100% kill)	0	9 (100% kill)	9 (100% kill)	–
CCOC(=S)SCn1c(-c2ccc(Cl)c(Cl)c2)c(Br)c(C(F)(F)F)c1C(F)(F)F [Example 35]	–	0	0	9 (100% kill)	9 (100% kill)	–
CN(C)C(=S)SCn1c(-c2ccc(Cl)cc2)c(C#N)c(Cl)c1C(F)(F)F [Example 21]	0	9 (100% kill)	–	–	–	SOUTHERN CORN ROOTWORM ([2]; 1 (ppm as headed)): 0; SOUTHERN CORN ROOTWORM ([2]; 10 (ppm as headed)): 0
CN=C(NC)SCn1c(Cl)c(Cl)c(C#N)c1-c1ccc(Cl)c(Cl)c1 [Example 15]	–	0	0	0	6 (66-75% kill)	–
CCOC(=S)SCn1c(Cl)c(C#N)c(Cl)c1-c1ccc(Cl)c(Cl)c1 [Example 37]	–	0	0	–	6 (66-75% kill)	–
N#Cc1c(Br)c(C(F)(F)F)n(CSC2=NCCS2)c1-c1ccc(Cl)cc1 [Example 16]	–	9 (100% kill)	0	9 (100% kill)	9 (100% kill)	–
CSCn1c(Br)c(Br)c(C#N)c1-c1ccc(C(F)(F)F)cc1 [Example 44]	0	3 (36-45% kill)	–	–	–	SOUTHERN CORN ROOTWORM ([2]; 10 (ppm as headed)): 0; LEAFHOPPER Contact [3, 7]: 0; LEAFHOPPER Contact [3, 8]: 7 (76-85% kill)
N#Cc1c(Br)c(Br)n(CSc2ccccc2)c1-c1ccc(C(F)(F)F)cc1 [Example 45, 4,5-dibromo-1-[(phenylthio)methyl]-2-(alpha, alpha,alpha-trifluoro-p-tolyl)pyrrole-3-carbonitrile]	–	0	–	–	–	inhibition at 1 ppm (Rhizoctonia solani; rate 1 ppm in agar): 0%; inhibition at 10 ppm (Rhizoctonia solani; rate 10 ppm in agar): 3.5%; inhibition at 25 ppm (Rhizoctonia solani; rate 25 ppm in agar): 2%; Disease Control WPM [4]: 1.0; Disease Control SBC (Cercospora beticola; rate 25 ppm): 6.0; Disease Control SBC (Cercospora beticola; rate 100 ppm): 7.0; Disease Control SBC (Cercospora beticola; rate 400 ppm): 7.5; Disease Control GDM (Plasmopara viticola): 0 (0); Disease Control WLR [5]: 6.0; Disease Control AS (Venturia inaequalis): 0 (0); inhibition at 1 ppm (Pythium ultimum; rate 1 ppm in agar): 0%; inhibition at 10 ppm (Pythium ultimum; rate 10 ppm in agar): 7%; inhibition at 25 ppm (Pythium ultimum; rate 25 ppm in agar): 4.5%
FC(F)(F)c1c(Br)c(-c2ccc(Cl)c(Cl)c2)n(CSC2=NCCCN2)c1C(F)(F)F [Example 17]	–	7 (76-85% kill)	0	–	5 (56-65% kill)	–
CN=C(NC)SCn1c(Cl)c(C#N)c(Cl)c1-c1ccc(Cl)c(Cl)c1 [Example 19]	–	0	0	0	9 (100% kill)	–
CN(C)C(=S)SCn1c(Cl)c(C#N)c(Cl)c1-c1ccc(Cl)c(Cl)c1 [Example 36]	–	0	0	–	6 (66-75% kill)	–
CC1(C)CN=C(SCn2c(-c3ccc(Cl)cc3)c(C#N)c(Br)c2C(F)(F)F)NC1 [Example 10]	–	0	6 (66-75% kill)	0	7 (76-85% kill)	–
N=C(N)SCn1c(-c2ccc(Cl)c(Cl)c2)c(Br)c(C(F)(F)F)c1C(F)(F)F [Example 18]	–	0	0	–	–	–
CN=C(NC)SCn1c(Br)c(Br)c(C#N)c1Br [Example 14]	–	0	7 (76-85% kill)	–	0	–
CCOC(=S)SCn1c(Cl)c(Cl)c(C#N)c1-c1ccc(Cl)c(Cl)c1 [Example 28]	–	0	0	0	9 (100% kill)	–
CSCn1c(-c2ccc(Cl)cc2)c(C#N)c(Br)c1C(F)(F)F [Example 25]	0	0	–	–	–	SOUTHERN CORN ROOTWORM ([2]; 10 (ppm as headed)): 0; LEAFHOPPER Contact [3, 7]: 0; LEAFHOPPER Contact [3, 8]: 9 (100% kill)
CN(C)C(=S)SCn1c(-c2ccc(Cl)cc2)c(C#N)c(Br)c1C(F)(F)F [Example 24]	0	9 (100% kill)	–	–	–	SOUTHERN CORN ROOTWORM ([2]; 1 (ppm as headed)): 0; SOUTHERN CORN ROOTWORM ([2]; 10 (ppm as headed)): 0; LEAFHOPPER Contact [3, 7]: 0; LEAFHOPPER Contact [3, 8]: 9 (100% kill)
N#Cc1c(Br)c(C(F)(F)F)n(CSC2=NCCN2)c1-c1ccc(Cl)cc1 [Example 7]	0	9 (100% kill)	–	–	–	SOUTHERN CORN ROOTWORM ([2]; 1 (ppm as headed)): 0; SOUTHERN CORN ROOTWORM ([2]; 10 (ppm as headed)): 0
CN=C(NC)SCn1c(-c2ccc(Cl)cc2)c(C#N)c(Cl)c1C(F)(F)F [Example 2]	0	8 (86-99% kill)	–	–	–	SOUTHERN CORN ROOTWORM ([2]; 1 (ppm as headed)): 0; SOUTHERN CORN ROOTWORM ([2]; 10 (ppm as headed)): 0
N#Cc1c(Br)c(Br)n(CSC2=NCCCN2)c1Br [Example 13]	–	0	0	–	0	–
CC(C)OC(=S)SCn1c(-c2ccc(Cl)cc2)c(C#N)c(Br)c1C(F)(F)F [Example 30]	–	9 (100% kill)	0	–	–	–
